Target: Kynurenine/alpha-aminoadipate aminotransferase, mitochondrial (Homo sapiens, UniProt Q8N5Z0)
Assay: Inhibition Spectra Assay : Formation of kynurenic acid (KYNA) is indirectly assessed by a decrease in light absorbance at 370 nm (OD370) as the L-kynurenine (KYN) substrate is converted by the human KAT II (hKAT II) enzyme into KYNA.

Chain of Kynurenine/alpha-aminoadipate aminotransferase, mitochondrial (Q8N5Z0 whole entry): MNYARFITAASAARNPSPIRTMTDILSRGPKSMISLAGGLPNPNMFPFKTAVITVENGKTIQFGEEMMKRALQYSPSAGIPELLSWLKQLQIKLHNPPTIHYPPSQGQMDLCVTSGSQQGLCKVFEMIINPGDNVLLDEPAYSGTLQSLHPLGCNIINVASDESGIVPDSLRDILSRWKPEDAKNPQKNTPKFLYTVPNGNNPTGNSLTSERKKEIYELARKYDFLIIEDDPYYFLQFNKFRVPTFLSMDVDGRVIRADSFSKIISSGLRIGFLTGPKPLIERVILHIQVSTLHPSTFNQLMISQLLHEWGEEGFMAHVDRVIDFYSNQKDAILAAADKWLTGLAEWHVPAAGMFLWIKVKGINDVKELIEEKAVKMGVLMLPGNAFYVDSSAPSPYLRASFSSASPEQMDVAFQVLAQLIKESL

- IC50: 85 nM
Compound: NC1Cc2nn(-c3ccccc3)cc2N(O)C1=O (stereo unspecified)
